# ChEMBL document CHEMBL3352625, “Development of novel neurokinin 3 receptor (NK3R) selective agonists with resistance to proteolytic degradation” (J Med Chem, 2014)
# pEC50, pIC50: −log10 of the molar value. *1 amine or outer side, *2 acyl side, *3 side chain or, on linkers, in order; H or OH if unused. Where a SMILES comes first, the peptide text is derived from it. [ ]: non-standard residue; d: D form. Glyψ(E-CHCH)Leu = CC(C)C[C@H](/C=C/CN[*:1])C(=O)[*:2]; NMeF = CN[C@@H](Cc1ccccc1)C(=O)O; Suc = O=C(CCC(=O)[*:2])[*:1]
# Key:
# Neuromedin-K receptor [1] = biological target: T1, Neuromedin-K receptor (Homo sapiens, UniProt P29371); assay: Displacement of [125I]His3, MePhe7 from human NK3R expressed in CHO cell membranes by scintillation counting
# T1 sequence (P29371 whole entry): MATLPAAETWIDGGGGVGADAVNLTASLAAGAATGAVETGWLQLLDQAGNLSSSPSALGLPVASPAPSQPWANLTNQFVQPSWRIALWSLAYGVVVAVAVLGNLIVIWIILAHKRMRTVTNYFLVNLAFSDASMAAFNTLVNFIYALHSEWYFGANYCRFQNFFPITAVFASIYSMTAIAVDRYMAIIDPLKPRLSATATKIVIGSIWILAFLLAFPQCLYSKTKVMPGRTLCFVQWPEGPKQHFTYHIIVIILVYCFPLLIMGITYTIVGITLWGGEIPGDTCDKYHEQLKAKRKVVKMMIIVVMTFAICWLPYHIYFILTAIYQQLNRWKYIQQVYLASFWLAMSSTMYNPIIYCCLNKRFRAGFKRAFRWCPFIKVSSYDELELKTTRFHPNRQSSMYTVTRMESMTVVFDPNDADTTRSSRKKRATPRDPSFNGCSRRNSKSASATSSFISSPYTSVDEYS
# Neuromedin-K receptor [2] = biological target: T1, Neuromedin-K receptor; assay: Agonist activity at human NK3R expressed in CHO cells assessed as induction of Ca2+ influx […]; type: functional, cell-based
# Serum [3] = assay: Drug metabolism in cattle serum assessed as peptide H-His-Asp-Phe-Phe-MePhe-Gly-Leu-Met-NH2 formation by HPLC analysis; type: ADME, cell-free, Bos taurus
# Serum [4] = assay: Drug metabolism in cattle serum assessed as peptide H-Asp-Phe-Phe-MePhe-Gly-Leu-Met-NH2 formation by HPLC analysis; type: ADME, cell-free, Bos taurus
# Serum [5] = assay: Drug metabolism in cattle serum assessed as peptide H-Phe-MePhe-Gly-Leu-Met-NH2 formation by HPLC analysis; type: ADME, cell-free, Bos taurus
# [6] = Drug metabolism in pig serum assessed as peptide H-His-Asp-Phe-Phe-MePhe-Gly-Leu-Met-NH2 formation by HPLC analysis; type: ADME, cell-free, Sus scrofa
# [7] = Drug metabolism in pig serum assessed as peptide H-Asp-Phe-Phe-MePhe-Gly-Leu-Met-NH2 formation by HPLC analysis; type: ADME, cell-free, Sus scrofa
# [8] = Drug metabolism in pig serum assessed as peptide H-Phe-MePhe-Gly-Leu-Met-NH2 formation by HPLC analysis; type: ADME, cell-free, Sus scrofa
# [9] = Drug metabolism in goat serum assessed as peptide H-His-Asp-Phe-Phe-MePhe-Gly-Leu-Met-NH2 formation by HPLC analysis; type: ADME, cell-free, Capra hircus
# [10] = Drug metabolism in goat serum assessed as peptide H-Asp-Phe-Phe-MePhe-Gly-Leu-Met-NH2 formation by HPLC analysis; type: ADME, cell-free, Capra hircus
# [11] = Drug metabolism in goat serum assessed as peptide H-Phe-MePhe-Gly-Leu-Met-NH2 formation by HPLC analysis; type: ADME, cell-free, Capra hircus
# Serum [12] = assay: Drug metabolism in rat serum assessed as H-His-Asp-Phe-Phe-MePhe-Gly-Leu-Met-NH2 2 formation by HPLC analysis; type: ADME, cell-free
# Serum [13] = assay: Drug metabolism in rat serum assessed as peptide H-Asp-Phe-Phe-MePhe-Gly-Leu-Met-NH2 formation by HPLC analysis; type: ADME, cell-free
# Serum [14] = assay: Drug metabolism in rat serum assessed as peptide H-Phe-MePhe-Gly-Leu-Met-NH2 formation by HPLC analysis; type: ADME, cell-free
# Serum [15] = assay: Drug metabolism in rat serum assessed as peptide H-Phe-MePhe-Gly-Leu-Met-OH formation by HPLC analysis; type: ADME, cell-free
# [16] = Drug metabolism in pig hypothalamic extract assessed as peptide H-Phe-MePhe-Gly-Leu-Met-NH2 formation by HPLC analysis; type: ADME, Sus scrofa, Hypothalamus
# [17] = Drug metabolism in pig hypothalamic extract assessed as peptide H-Phe-MePhe-Gly-Leu-Met-OH formation by HPLC analysis; type: ADME, Sus scrofa, Hypothalamus
# [18] = Drug metabolism in pig hypothalamic extract assessed as peptide H-Phe-MePhe-Gly-OH formation by HPLC analysis; type: ADME, Sus scrofa, Hypothalamus
# [19] = Drug metabolism in pig hypothalamic extract assessed as peptide H-Met-His-Asp-Phe-Phe-MePhe-Gly-Leu-Met-NH2 formation by HPLC analysis; type: ADME, Sus scrofa, Hypothalamus
# [20] = Drug metabolism in pig hypothalamic extract assessed as peptide H-His-Asp-Phe-Phe-MePhe-Gly-Leu-Met-NH2 formation by HPLC analysis; type: ADME, Sus scrofa, Hypothalamus
# [21] = Drug metabolism in pig hypothalamic extract assessed as peptide H-Asp-Phe-Phe-MePhe-Gly-Leu-Met-NH2 formation by HPLC analysis; type: ADME, Sus scrofa, Hypothalamus
# [22] = Drug metabolism in pig hypothalamic extract assessed as peptide H-Phe-Phe-MePhe-Gly-Leu-Met-NH2 formation by HPLC analysis; type: ADME, Sus scrofa, Hypothalamus
# Neuromedin-K receptor [23] = biological target: T1, Neuromedin-K receptor; assay: Agonist activity at human NK3R expressed in CHO cells assessed as potentiation of senktide-induced effect; type: cell-based
# Neuromedin-K receptor [24] = biological target: T2, Neuromedin-K receptor (Rattus norvegicus, UniProt P16177); assay: Agonist activity at rat NK3R
# T2 sequence (P16177 whole entry): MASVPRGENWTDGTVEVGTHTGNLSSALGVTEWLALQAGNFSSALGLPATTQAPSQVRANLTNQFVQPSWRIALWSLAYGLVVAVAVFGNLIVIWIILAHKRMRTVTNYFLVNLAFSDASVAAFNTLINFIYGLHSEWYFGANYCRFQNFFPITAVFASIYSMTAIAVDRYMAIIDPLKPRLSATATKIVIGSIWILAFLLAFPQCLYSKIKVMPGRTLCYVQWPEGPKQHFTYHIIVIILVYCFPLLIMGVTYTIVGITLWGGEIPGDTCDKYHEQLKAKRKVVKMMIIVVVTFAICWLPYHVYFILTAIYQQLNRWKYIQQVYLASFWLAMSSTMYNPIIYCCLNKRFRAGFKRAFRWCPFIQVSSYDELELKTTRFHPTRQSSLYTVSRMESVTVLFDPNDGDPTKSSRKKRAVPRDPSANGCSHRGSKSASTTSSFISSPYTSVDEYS
# [25] = Agonist activity at cattle NK3R; set-up: species or system Bos taurus
# [26] = Agonist activity at goat NK3R; set-up: species or system Capra hircus
# [27] = Induction of GnRH release in ovariectomized goat assessed as induction of multiple-unit activity volley measured as duration of effect at 200 nmol, iv as single dose; type: functional, Capra hircus
# Serum [28] = assay: Metabolic stability in rat serum up to 24 hrs by HPLC analysis; type: ADME, cell-free
# Serum [29] = assay: Metabolic stability in cattle serum up to 24 hrs by HPLC analysis; type: ADME, Bos taurus
# [30] = Metabolic stability in pig serum up to 24 hrs by HPLC analysis; type: ADME, Sus scrofa
# [31] = Metabolic stability in goat serum up to 24 hrs by HPLC analysis; type: ADME, Capra hircus
# [32] = Metabolic stability in pig hypothalamic extract by HPLC analysis; type: ADME, Sus scrofa, Hypothalamus
# NEP 24.11 (neprilysin) = NEP 24.11 (neprilysin) (Homo sapiens, UniProt P08473); assay: Drug metabolism assessed as NEP 24.11 (unknown origin)-mediated degradation up to 24 hrs by HPLC analysis; type: ADME; details: NEP 24.11 (neprilysin) enzyme, read-out: Drug metabolism
# Sequence of NEP 24.11 (neprilysin) (P08473 whole entry): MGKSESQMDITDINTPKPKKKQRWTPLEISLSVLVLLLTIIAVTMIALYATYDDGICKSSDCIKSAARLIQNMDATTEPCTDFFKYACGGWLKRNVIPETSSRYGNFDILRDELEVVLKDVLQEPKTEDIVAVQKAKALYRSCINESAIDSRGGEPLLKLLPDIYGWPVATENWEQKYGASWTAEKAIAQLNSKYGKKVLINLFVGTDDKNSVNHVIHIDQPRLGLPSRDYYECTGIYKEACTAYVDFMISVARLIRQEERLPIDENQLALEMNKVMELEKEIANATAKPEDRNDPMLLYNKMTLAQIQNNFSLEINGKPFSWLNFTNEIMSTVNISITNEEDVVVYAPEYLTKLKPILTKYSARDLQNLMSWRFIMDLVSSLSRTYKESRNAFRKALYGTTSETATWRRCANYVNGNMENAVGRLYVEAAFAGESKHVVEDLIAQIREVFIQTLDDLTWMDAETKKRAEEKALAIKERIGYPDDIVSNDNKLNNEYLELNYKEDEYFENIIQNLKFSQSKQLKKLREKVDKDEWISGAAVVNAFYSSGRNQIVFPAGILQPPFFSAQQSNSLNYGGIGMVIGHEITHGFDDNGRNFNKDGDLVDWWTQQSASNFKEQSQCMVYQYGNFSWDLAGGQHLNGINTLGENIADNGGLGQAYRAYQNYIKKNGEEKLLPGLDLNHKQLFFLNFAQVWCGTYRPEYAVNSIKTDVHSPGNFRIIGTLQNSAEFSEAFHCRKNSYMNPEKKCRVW
# Neprilysin [33] = biological target: T3, Neprilysin (Homo sapiens, UniProt P08473); assay: Drug metabolism assessed as NEP 24.11 (unknown origin)-mediated Succinyl-Asp-Phe-MePhe-Gly-OH up to 24 hrs by HPLC analysis; type: ADME
# T3 sequence (P08473 whole entry): as above
# Neprilysin [34] = biological target: T3, Neprilysin; assay: Drug metabolism assessed as NEP 24.11 (unknown origin)-mediated H-Leu-Met-NH2 up to 24 hrs by HPLC analysis; type: ADME
smiles,measurement,setting,value
CSCC[C@H](NC(=O)[C@H](CC(C)C)NC(=O)CNC(=O)[C@H](Cc1ccccc1)N(C)C(=O)[C@H](Cc1ccccc1)NC(=O)[C@H](Cc1ccccc1)NC(=O)[C@H](CC(=O)O)NC(=O)[C@H](Cc1cnc[nH]1)NC(=O)[C@H](CCSC)NC(=O)[C@@H](N)CC(=O)O)C(N)=O (H-DMHDFF[NMeF]GLM-NH2),pIC50,Neuromedin-K receptor [1],7.92
same,pEC50,Neuromedin-K receptor [2],7.19
same,Drug metabolism,Serum [3],metabolite_detected
same,Drug metabolism,Serum [4],metabolite_detected
same,Drug metabolism,Serum [5],metabolite_detected
same,Drug metabolism,[6],metabolite_detected
same,Drug metabolism,[7],metabolite_detected
same,Drug metabolism,[8],metabolite_detected
same,Drug metabolism,[9],metabolite_detected
same,Drug metabolism,[10],metabolite_detected
same,Drug metabolism,[11],metabolite_detected
same,Drug metabolism,Serum [12],metabolite_detected
same,Drug metabolism,Serum [13],metabolite_detected
same,Drug metabolism,Serum [14],metabolite_detected
same,Drug metabolism,Serum [15],metabolite_detected
same,Drug metabolism,[16],metabolite_detected
same,Drug metabolism,[17],metabolite_detected
same,Drug metabolism,[18],metabolite_detected
same,Drug metabolism,[19],metabolite_notdetected
same,Drug metabolism,[20],metabolite_notdetected
same,Drug metabolism,[21],metabolite_notdetected
same,Drug metabolism,[22],metabolite_notdetected
CSCC[C@H](NC(=O)[C@@H](/C=C/CNC(=O)[C@H](Cc1ccccc1)N(C)C(=O)[C@H](Cc1ccccc1)NC(=O)[C@H](CC(=O)O)NC(=O)CCC(=O)O)CC(C)C)C(N)=O (Suc-DF[NMeF][Glyψ(E-CHCH)Leu]M-NH2),pIC50,Neuromedin-K receptor [1],7.25
same,pEC50,Neuromedin-K receptor [23],7.80
same,pEC50,Neuromedin-K receptor [24],7.72
same,pEC50,[25],6.44
same,pEC50,[26],7.96
same,Time,[27],92.1 min
CSCC[C@H](NC(=O)[C@H](CC(C)C)NC(=O)CNC(=O)[C@H](Cc1ccccc1)N(C)C(=O)[C@H](Cc1ccccc1)NC(=O)[C@H](CC(=O)O)NC(=O)CCC(=O)O)C(N)=O [SENKTIDE],pEC50,[25],6.47
same,pEC50,[26],7.92
same,Time,[27],60.6 min
same,Stability,Serum [28],Stable
same,Stability,Serum [29],Stable
same,Stability,[30],Stable
same,Stability,[31],Stable
same,Stability,[32],Stable
same,metabolised at 24 h,NEP 24.11 (neprilysin),> 80%
same,Drug metabolism,Neprilysin [33],metabolite_detected
same,Drug metabolism,Neprilysin [34],metabolite_detected
